Holding throughout (format): biochemical
One assay concerns the target T1, TRB2(h) (Homo sapiens, UniProt Q92519).
T1 construct: purchased Eurofins (KinaseProfiler)
T1 sequence (Q92519 1-343): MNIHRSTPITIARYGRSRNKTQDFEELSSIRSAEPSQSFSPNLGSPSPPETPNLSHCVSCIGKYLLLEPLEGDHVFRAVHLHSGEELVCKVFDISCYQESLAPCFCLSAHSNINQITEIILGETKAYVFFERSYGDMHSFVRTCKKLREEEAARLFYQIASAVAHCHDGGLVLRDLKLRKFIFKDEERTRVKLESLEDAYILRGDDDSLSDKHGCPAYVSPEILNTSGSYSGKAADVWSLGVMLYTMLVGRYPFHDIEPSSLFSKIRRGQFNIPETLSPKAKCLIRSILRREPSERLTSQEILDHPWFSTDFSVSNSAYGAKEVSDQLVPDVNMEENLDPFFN
As to the kind of experiment: radiometric kinase assay (KinaseProfiler, Eurofins), TRB2. The following applies: in vitro radiometric kinase assay, tested at 1 nM to 10 000 nM, no pre-incubation; read-out: inhibitory activities (IC50 values) TRB2. The method, then:
(§1) The compounds were profiled in the radiometric assays (KinaseProfiler, Eurofins).
(§2) Briefly, kinases were diluted in the buffer shown below prior to addition to the reaction mix: • CDKL3, TAF1L: 20 mM Tris/HCl pH 8.5, 0.2 mM EDTA, 0.1% β-mercaptoethanol, 0.01% Brij-35, 5% glycerol, 1 mg/ml BSA; • Haspin: 15 mM MOPS, 0.75 mM EDTA, 0.0075% Brij-35, 3.75% Glycerol, 150 mM NaCl, 0.1% β-mercaptoethanol, 1 mg/mLBSA; • CDKL4, CLK2, PIM1, TRB2: […], 1 mM EDTA, 0.01% Brij-35, 5% Glycerol, 0.1% β-mercaptoethanol, 1 mg/mL BSA.
(§3) All compounds were prepared to 50x final assay concentration in 100% DMSO. This working stock of the compound was added to the assay well as the first component in the reaction, followed by the remaining components as detailed in the general assay protocols below. There was no pre-incubation step between the compound and the kinase prior to initiation of the reaction.
TRB2(h) was incubated with 8 mM MOPS pH 7.0, 0.2 mM EDTA, 250 µM RRRFRPASPLRGPPK (SEQ ID NO. 1), 10 mM magnesium acetate and γ-^33P-ATP (specific activity and concentration as required). The reaction was initiated by the addition of the Mg/ATP mix. After incubation for 120 minutes at room temperature, the reaction was stopped by the addition of phosphoric acid to a concentration of 0.5%. An aliquot of the stopped reaction was spotted onto a filter and washed four times for 4 minutes in 0.425% phosphoric acid and once in methanol prior to drying and scintillation counting.
(§4) Kinase activity data were expressed as the percent remaining kinase activity in tested samples compared to the vehicle (DMSO) reactions. The compounds were tested at the following concentrations: 1 nM, 3 nM, 10 nM, 30 nM, 100 nM, 300 nM, 1000 nM, 3000 nM, and 10 000 nM; IC50 values and curve fits were then obtained.

The next assay concerns the target T2, CDKL3(h) (Homo sapiens, UniProt Q8IVW4).
T2 construct: purchased Eurofins (KinaseProfiler)
As to the kind of experiment: radiometric kinase assay (KinaseProfiler, Eurofins), CDKL3. The following applies: in vitro radiometric kinase assay, tested at 1 nM to 10 000 nM, no pre-incubation; read-out: inhibitory activities (IC50 values) CDKL3. The method, then: as §1, §2, §3
CDKL3(h) was incubated with 8 mM MOPS pH 7.0, 0.2 mM EDTA, 250 µM RRRFRPASPLRGPPK (SEQ ID NO. 1), 10 mM magnesium acetate and γ-^33P-ATP (specific activity and concentration as required). The reaction was initiated by the addition of the Mg/ATP mix. After incubation for 120 minutes at room temperature, the reaction was stopped by the addition of phosphoric acid to a concentration of 0.5%. An aliquot of the stopped reaction was spotted onto a filter and washed four times for 4 minutes in 0.425% phosphoric acid and once in methanol prior to drying and scintillation counting.
as §4

The next assay addresses T3, DYRK2 (h) (Homo sapiens, UniProt Q92630).
T3 construct: purchased Eurofins (KinaseProfiler)
T3 sequence (Q92630 1-601): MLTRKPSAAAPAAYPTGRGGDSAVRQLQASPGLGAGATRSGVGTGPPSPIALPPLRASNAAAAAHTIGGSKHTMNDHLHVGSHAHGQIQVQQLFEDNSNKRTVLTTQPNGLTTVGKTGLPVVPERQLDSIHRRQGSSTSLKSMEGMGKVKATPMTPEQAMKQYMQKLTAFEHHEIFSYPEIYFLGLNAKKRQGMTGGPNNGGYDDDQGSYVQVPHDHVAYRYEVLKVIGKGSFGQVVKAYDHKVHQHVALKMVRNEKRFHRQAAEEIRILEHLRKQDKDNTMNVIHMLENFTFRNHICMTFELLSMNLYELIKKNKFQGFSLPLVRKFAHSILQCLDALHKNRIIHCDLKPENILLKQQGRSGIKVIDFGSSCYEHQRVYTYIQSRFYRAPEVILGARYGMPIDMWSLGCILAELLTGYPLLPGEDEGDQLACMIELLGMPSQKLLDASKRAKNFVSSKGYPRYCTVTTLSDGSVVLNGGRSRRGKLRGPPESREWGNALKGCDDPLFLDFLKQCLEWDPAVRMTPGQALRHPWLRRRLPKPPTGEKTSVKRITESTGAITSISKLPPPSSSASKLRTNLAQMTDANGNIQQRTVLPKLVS
As to the kind of experiment: radiometric kinase assay (KinaseProfiler, Eurofins), DYRK2. The following applies: in vitro radiometric kinase assay, tested at 1 nM to 10 000 nM, no pre-incubation; read-out: inhibitory activities (IC50 values) DYRK2. How it is done: as §1, §3
DYRK2 (h) was incubated with 8 mM MOPS pH 7.0, 0.2 mM EDTA, 2 mg/mL casein, 10 mM magnesium acetate and γ-^33P-ATP (specific activity and concentration as required). The reaction was initiated by the addition of the Mg/ATP mix. After incubation for 40 minutes at room temperature, the reaction was stopped by the addition of phosphoric acid to a concentration of 0.5%. An aliquot of the reaction was then spotted onto a filter and washed four times for 4 minutes in 0.425% phosphoric acid and once in methanol prior to drying and scintillation counting.
as §4

In a further assay the target is T4, TAF1L(h) (Homo sapiens, UniProt Q8IZX4).
T4 construct: purchased Eurofins (KinaseProfiler)
As to the kind of experiment: radiometric kinase assay (KinaseProfiler, Eurofins), TAF1L. The following applies: in vitro radiometric kinase assay, tested at 1 nM to 10 000 nM, no pre-incubation; read-out: inhibitory activities (IC50 values) TAF1L. How it is done: as §1, §2, §3
TAF1L(h) was incubated with 20 mM Tris/HCl pH 8.5, 0.2 mM EDTA, 250 µM RRRFRPASPLRGPPK (SEQ ID NO. 1), 10 mM magnesium acetate and γ-^33P-ATP (specific activity and concentration as required). The reaction was initiated by the addition of the Mg/ATP mix. After incubation for 120 minutes at room temperature, the reaction was stopped by the addition of phosphoric acid to a concentration of 0.5%. An aliquot of the stopped reaction was spotted onto a filter and washed four times for 4 minutes in 0.425% phosphoric acid and once in methanol prior to drying and scintillation counting.
as §4

Molecules are shown by their SMILES.

In general, IC50 refers to the concentration needed to halve the response being measured.

T4 sequence (Q8IZX4 whole entry): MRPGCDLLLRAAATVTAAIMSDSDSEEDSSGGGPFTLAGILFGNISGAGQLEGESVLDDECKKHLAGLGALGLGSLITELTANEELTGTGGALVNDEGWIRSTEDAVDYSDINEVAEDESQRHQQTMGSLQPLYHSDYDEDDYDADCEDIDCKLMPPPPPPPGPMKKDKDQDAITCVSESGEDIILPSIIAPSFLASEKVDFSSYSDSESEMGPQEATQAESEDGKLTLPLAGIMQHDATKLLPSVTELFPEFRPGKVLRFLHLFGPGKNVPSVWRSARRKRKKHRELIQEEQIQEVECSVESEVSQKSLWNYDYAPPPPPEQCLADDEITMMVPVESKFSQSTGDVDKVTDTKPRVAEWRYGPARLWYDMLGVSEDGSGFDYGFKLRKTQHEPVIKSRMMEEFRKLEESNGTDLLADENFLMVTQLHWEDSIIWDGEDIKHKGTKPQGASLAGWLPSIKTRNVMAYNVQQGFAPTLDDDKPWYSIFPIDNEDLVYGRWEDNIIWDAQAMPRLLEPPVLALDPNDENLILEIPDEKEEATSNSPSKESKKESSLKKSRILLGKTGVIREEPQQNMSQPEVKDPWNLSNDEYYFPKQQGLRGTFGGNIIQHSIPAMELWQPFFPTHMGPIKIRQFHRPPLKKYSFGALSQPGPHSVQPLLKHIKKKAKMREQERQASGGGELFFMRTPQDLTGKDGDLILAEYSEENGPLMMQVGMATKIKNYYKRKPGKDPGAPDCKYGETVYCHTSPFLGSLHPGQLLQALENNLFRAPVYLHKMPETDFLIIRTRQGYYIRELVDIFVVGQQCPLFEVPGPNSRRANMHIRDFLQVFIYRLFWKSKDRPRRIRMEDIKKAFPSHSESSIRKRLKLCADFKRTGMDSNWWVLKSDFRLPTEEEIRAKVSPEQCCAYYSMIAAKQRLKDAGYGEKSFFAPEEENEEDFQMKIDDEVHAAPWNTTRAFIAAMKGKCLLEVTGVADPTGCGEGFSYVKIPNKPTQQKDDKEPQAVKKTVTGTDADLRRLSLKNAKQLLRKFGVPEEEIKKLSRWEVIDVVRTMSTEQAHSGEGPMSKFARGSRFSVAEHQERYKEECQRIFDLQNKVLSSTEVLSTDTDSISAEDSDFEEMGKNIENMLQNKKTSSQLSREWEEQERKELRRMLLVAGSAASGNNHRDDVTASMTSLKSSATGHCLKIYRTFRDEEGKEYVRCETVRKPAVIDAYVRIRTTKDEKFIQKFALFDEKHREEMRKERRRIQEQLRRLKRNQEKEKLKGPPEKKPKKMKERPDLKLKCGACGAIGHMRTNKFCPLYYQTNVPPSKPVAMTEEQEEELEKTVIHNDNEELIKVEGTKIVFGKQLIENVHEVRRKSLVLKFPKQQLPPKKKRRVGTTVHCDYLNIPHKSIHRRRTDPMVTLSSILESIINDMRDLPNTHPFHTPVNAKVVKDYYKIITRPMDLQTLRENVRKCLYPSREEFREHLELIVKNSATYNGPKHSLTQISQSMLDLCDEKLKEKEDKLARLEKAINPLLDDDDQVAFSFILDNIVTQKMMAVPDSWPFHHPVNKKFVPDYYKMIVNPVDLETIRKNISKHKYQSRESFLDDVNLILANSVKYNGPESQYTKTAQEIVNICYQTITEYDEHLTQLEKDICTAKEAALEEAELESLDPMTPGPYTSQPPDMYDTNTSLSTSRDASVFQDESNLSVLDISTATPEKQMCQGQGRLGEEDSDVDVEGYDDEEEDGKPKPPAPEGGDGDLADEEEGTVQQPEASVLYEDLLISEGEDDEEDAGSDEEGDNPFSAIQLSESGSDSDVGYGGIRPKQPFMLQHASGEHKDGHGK
T2 sequence (Q8IVW4 whole entry): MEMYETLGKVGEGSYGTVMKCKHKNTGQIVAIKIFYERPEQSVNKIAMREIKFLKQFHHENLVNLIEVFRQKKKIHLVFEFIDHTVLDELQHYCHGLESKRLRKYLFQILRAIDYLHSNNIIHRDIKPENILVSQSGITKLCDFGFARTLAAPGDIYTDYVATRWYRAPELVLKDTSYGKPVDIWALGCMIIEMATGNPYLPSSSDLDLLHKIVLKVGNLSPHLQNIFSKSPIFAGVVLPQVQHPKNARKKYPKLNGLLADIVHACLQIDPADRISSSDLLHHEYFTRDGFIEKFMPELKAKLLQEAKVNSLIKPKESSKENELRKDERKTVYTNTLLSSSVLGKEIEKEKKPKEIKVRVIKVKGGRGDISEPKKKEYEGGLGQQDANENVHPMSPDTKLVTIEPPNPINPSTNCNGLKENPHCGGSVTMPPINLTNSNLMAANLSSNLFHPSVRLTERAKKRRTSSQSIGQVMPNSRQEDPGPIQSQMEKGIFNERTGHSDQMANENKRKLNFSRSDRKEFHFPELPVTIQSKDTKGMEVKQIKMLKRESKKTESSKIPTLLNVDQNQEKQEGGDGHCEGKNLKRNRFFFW

Turning to `Cn1cc(-c2ccc3scc(-c4ccnc(C#N)c4)c3n2)cn1`, the IC50 at TRB2(h) is 100 to 499 nM; on CDKL3(h), 100 to 499 nM; on DYRK2 (h), 500 to 3000 nM; on TAF1L(h), 100 to 499 nM.

`Cn1cc(-c2ccc3scc(-c4cnn(Cc5ccccc5)c4)c3n2)cn1`: the IC50 at TRB2(h) lay in the range of 500 to 3000 nM; on CDKL3(h), 500 to 3000 nM; on DYRK2 (h), 3000 to 10000 nM; at TAF1L(h), 100 to 499 nM.

Regarding `Cn1cc(-c2ccc3scc(-c4ccccc4)c3n2)cn1` [Preparative Example 2, 5-(1-methyl-1H-pyrazol-4-yl)-3-phenylthieno[3,2-b]pyridine], the IC50 at TRB2(h) was 500 to 3000 nM; on CDKL3(h), 100 to 499 nM; on DYRK2 (h), 500 to 3000 nM; on TAF1L(h), 100 to 499 nM.

For the molecule `Cn1cc(-c2ccc3scc(C4=CCNCC4)c3n2)cn1` [Preparative Example 9, 5-(1-methyl-1H-pyrazol-4-yl)-3-(1,2,3,6-tetrahydropyridin-4-yl)-thieno[3.2-b]pyridine], the IC50 was in the range of 3000 to 10000 nM on TRB2(h), 500 to 3000 nM at CDKL3(h), 3000 to 10000 nM on DYRK2 (h) and 500 to 3000 nM on TAF1L(h).

With `Cn1cc(-c2ccc3scc(-c4cccnc4)c3n2)cn1` [Preparative Example 11, 5-(1-methyl-1H-pyrazol-4-yl)-3-(pyridin-3-yl)thieno[3,2-b]pyridine], the IC50 on TRB2(h) fell in the range of 500 to 3000 nM; at CDKL3(h), 100 to 499 nM; at DYRK2 (h), 500 to 3000 nM; at TAF1L(h), 500 to 3000 nM.

As for `Cn1cc(-c2ccc3scc(-c4ccncc4)c3n2)cn1` [Preparative Example 13, 5-(1-methyl-1H-pyrazol-4-yl)-3-(pyridin-4-yl)thieno[3,2-b]pyridine], the IC50 fell in the range of 500 to 3000 nM on TRB2(h), 100 to 499 nM at CDKL3(h), 500 to 3000 nM at DYRK2 (h) and 100 to 499 nM on TAF1L(h).

On to `Cc1cc(-c2csc3ccc(-c4cnn(C)c4)nc23)ccn1` [Preparative Example 15, 5-(1-methyl-1H-pyrazol-4-yl)-3-(2-methylpyridin-4-yl)-thieno[3,2-b]pyridine], for which the IC50 on TRB2(h) lay in the range of 100 to 499 nM; at CDKL3(h), 100 to 499 nM; at DYRK2 (h), 500 to 3000 nM; on TAF1L(h) it was 100 to 499 nM.

With `COc1cc(-c2csc3ccc(-c4cnn(C)c4)nc23)ccn1` [Preparative Example 17, 3-(2-methoxypyridin-4-yl)-5-(1-methyl-1H-pyrazol-4-yl)thieno[3.2-b]pyridine], the IC50 on TRB2(h) lay within 500 to 3000 nM; on CDKL3(h), 100 to 499 nM; on DYRK2 (h) it was 100 to 499 nM; on TAF1L(h), 100 to 499 nM.

`Cn1cc(-c2ccc3scc(-c4ccnc(F)c4)c3n2)cn1` [Preparative Example 22, 3-(2-fluoropyridin-4-yl)-5-(1-methyl-1H-pyrazol-4-yl)thieno[3,2-b]pyridine]: the IC50 on TRB2(h) was in the range of 100 to 499 nM; on CDKL3(h), 100 to 499 nM; at DYRK2 (h), 500 to 3000 nM; at TAF1L(h), 100 to 499 nM.

Consider `Cn1cc(-c2ccc3scc(-c4ccnc(CN)c4)c3n2)cn1` [Preparative Example 28, (4-(5-(1-methyl-1H-pyrazol-4-yl)thieno[3,2-b]pyridin-3-yl)pyridin-2-yl)methanamine], for which the IC50 at TRB2(h) was in the range of 500 to 3000 nM; at CDKL3(h), 500 to 3000 nM; on DYRK2 (h) it was 100 to 499 nM; on TAF1L(h), 500 to 3000 nM.

Consider `Cc1cc(-c2csc3ccc(-c4cnn(C)c4)nc23)cc(C)n1` [Preparative Example 30, 3-(2,6-dimethylpyridin-4-yl)-5-(1-methyl-1H-pyrazol-4-yl)thieno-[3,2-b]pyridine], for which the IC50 at TRB2(h) lay within 500 to 3000 nM; on CDKL3(h), 500 to 3000 nM; on DYRK2 (h) it was 500 to 3000 nM; at TAF1L(h), 100 to 499 nM.

Regarding `Cc1cnccc1-c1csc2ccc(-c3cnn(C)c3)nc12` [Preparative Example 32, 5-(1-methyl-1H-pyrazol-4-yl)-3-(3-methylpyridin-4-yl)thieno[3,2-b]pyridine], the IC50 on TRB2(h) lay within 3000 to 10000 nM; on CDKL3(h), 500 to 3000 nM; at DYRK2 (h), 3000 to 10000 nM; on TAF1L(h), 500 to 3000 nM.

On to `Cn1cc(-c2ccc3scc(-c4ccncc4C#N)c3n2)cn1` [Preparative Example 34, 4-(5-(1-methyl-1H-pyrazol-4-yl)thieno[3,2-b]pyridin-3-yl)nicotino-nitrile], for which the IC50 was 3000 to 10000 nM at TRB2(h), 500 to 3000 nM at CDKL3(h), 500 to 3000 nM at DYRK2 (h) and 500 to 3000 nM at TAF1L(h).

For the molecule `Cn1cc(-c2ccc3scc(-c4ccncc4F)c3n2)cn1` [Preparative Example 36, 3-(3-fluoropyridin-4-yl)-5-(1-methyl-1H-pyrazol-4-yl)thieno[3,2-b]pyridine], the IC50 was 100 to 499 nM at TRB2(h), 100 to 499 nM on CDKL3(h), 500 to 3000 nM at DYRK2 (h) and 100 to 499 nM on TAF1L(h).

For the molecule `Cn1cc(-c2ccc3scc(-c4ccnnc4)c3n2)cn1` [Preparative Example 40, 5-(1-methyl-1H-pyrazol-4-yl)-3-(pyridazin-4-yl)thieno[3,2-b]-pyridine], the half-maximal inhibitory concentration (IC50) fell in the range of 500 to 3000 nM at TRB2(h), 500 to 3000 nM at CDKL3(h), 500 to 3000 nM at DYRK2 (h) and 100 to 499 nM on TAF1L(h).

Take `Cn1cc(-c2ccc3scc(-c4ccc5ncnn5c4)c3n2)cn1` [Preparative Example 53, 3-([1,2,4]-triazolo[1,5-a]pyridin-6-yl)-5-(1-methyl-1H-pyrazol-4-yl)thieno[3,2-b]pyridine]: the half-maximal inhibitory concentration (IC50) on TRB2(h) is 20 to 99 nM; at CDKL3(h), 100 to 499 nM; on DYRK2 (h) it was 100 to 499 nM; at TAF1L(h) it was 100 to 499 nM.

Source of the values: EP4483954A1 (Masarykova Univerzita, priority 2023, dated 2025).
